Results published in patent US20250283049A1, “AGENT FOR CULTURING ORGANOID IN ABSENCE OF EXTRACELLULAR MATRIX” (KEIO UNIVERSITY, priority 2022, published 2025).

B1: Oncostatin M: cytokine of a cytokine family that binds to gp130 (protein, UniProt P13725 26-221, looked up)
Oncostatin-M: AAIGSCSKEYRVLLGQLQKQTDLMQDTSRLLDPYIRIQGLDVPKLREHCRERPGAFPSEETLRGLGRRGFLQTLNATLGCVLHRLADLEQRLPKAQDLERSGLNIEDLEKLQMARPNILGLRNNIYCMAQLLDNSDTAEPTKAGRGASQPPTPTPASDAFQRKLEGCRFLHGYHRFMHSVGRVFSKWGESPNRSRR

Tests used:
Type in all cases: cell-based
[1] = system: human small intestine-derived organoid; test: Culture of organoids in absence of Matrigel with LATS kinase inhibitor; cell number by ATP (CellTiter-Glo 3D); conditions: both Lats-IN (10 μM) and MYF01-37 added
Procedure: (§1) In this experimental example, a human small intestine-derived organoid and human large intestine-derived organoid established in the presence of Matrigel (registered trademark) were cultured in the absence of Matrigel (registered trademark) and in the presence of a LATS kinase inhibitor (final concentration: 10 μM), and their dynamics were observed. The procedure was the same as in Experimental Example 1, except that each organoid was cultured in the absence of Matrigel (registered trademark).
The upper left panel of FIG. 3 is a photograph of a control (Ctrl) human small intestine-derived organoid cultured in the absence of Lats-IN, and the upper center panel of FIG. 3 is a photograph of a human small intestine-derived organoid cultured in the presence of Lats-IN. The scale bar is 100 μm. […] The vertical axis of the graph represents luminescence intensity (relative value) indicating the amount of ATP present. […]
(§2) FIG. 8 presents graphs showing the results of measuring the proliferation of the human small intestine-derived and human large intestine-derived organoids in the absence of Lats-IN (Ctrl), in the presence of Lats-IN (Lats-IN), in the presence of Lats-IN and MYF01-37 (Lats-IN+MYF), and in the presence of MYF01-37 (MYF). The cell proliferation was measured by measuring ATP using a commercially available kit (product name “CellTiter-Glo 3D,” Promega Corporation). The vertical axis of the graph represents luminescence intensity (relative value) indicating the amount of ATP present. […]
(§3) FIG. 26 presents graphs showing the results of measuring cell number in each organoid after 6 days of culture by measuring ATP using a commercially available kit (product name “CellTiter-Glo 3D,” Promega Corporation). The vertical axis of the graph represents luminescence intensity (relative value) indicating the amount of ATP present.

[2] = system: human large intestine-derived organoid; test: as above; conditions: both Lats-IN (10 μM) and MYF01-37 added
Procedure: as §1
The lower left panel of FIG. 3 is a photograph of a control (Ctrl) human large intestine-derived organoid cultured in the absence of Lats-IN, and the lower center panel of FIG. 3 is a photograph of a human large intestine-derived organoid cultured in the presence of Lats-IN. The scale bar is 100 μm. The lower right panel of FIG. 3 is a graph showing the results of measuring cell number in the human large intestine-derived organoids cultured in the presence of the control (Ctrl) and Lats-IN. The vertical axis of the graph represents luminescence intensity (relative value) indicating the amount of ATP present. […]
as §2, §3

[3] = system: human liver cell organoids; test: Culturing liver cell organoids in absence of Matrigel; number of viable cells (CellTiter-Glo 3D); conditions: for number of viable cells, higher than control group: day 6 after seeding
Procedure: Human liver cell organoids, established from primary human liver cells, were supplemented with TrypLE Express (Thermo Fisher Scientific) and incubated at 37° C. for 5 minutes to dissociate them into single cells.
The cells were then collected and suspended in proliferation medium separately supplemented with 2, 5, 10, 20, or 50 μM TDI-011536 (CAS No. 2687970-96-1), and […] seeded into an ultra-low attachment 96-well plate at 2,000 cells/well. The preferred seeding density is 2,000 to 4,000 cells/well. In addition, cells in proliferation medium supplemented with no TDI-011536 were prepared as a control.
The proliferation medium was a medium consisting of a basal medium (Advanced DMEM/F-12 medium, 10 mM HEPES, 2 mM GlutaMAX, 100 U penicillin, 100 μg/mL streptomycin) supplemented with 10% afamin-Wnt-3A conditioned medium, 2% R-spondin 1 conditioned medium, 2% Noggin conditioned medium, and 20 ng/ml Oncostatin M.
On day 6 after seeding, the number of viable cells in the human liver cell organoids was measured using a commercially available kit (product name “CellTiter-Glo 3D,” Promega Corporation).

[4] = system: primary human liver cells (EpCAM-negative); test: Establishment of liver cell organoids in absence of Matrigel; conditions: for establishment of human liver cell organoids: proliferation medium with both 20 μM TDI-011536 and 20 ng/ml Oncostatin M
Procedure: Frozen primary human liver cells were suspended in Advanced DMEM/F-12 medium and thawed. Two types of primary human liver cells, Line 1 and Line 2, were used.
Subsequently, each of the thawed primary human liver cells was stained with an APC-labeled mouse anti-human EpCAM antibody, and EpCAM-negative cells were collected using a cell sorter. The collected cells were then suspended in proliferation medium supplemented with 20 μM TDI-011536 and seeded into an ultra-low attachment 96-well plate at 3,000 to 4,000 cells/well. The cells were then cultured to obtain liver cell organoids. In addition, for comparison, cells were also prepared using proliferation medium supplemented with no TDI-011536 or no Oncostatin M.
The passaging of liver cell organoids in the absence of Matrigel (registered trademark) was performed as follows. First, calcium ions and magnesium ions were chelated using 1 mM EDTA/phosphate buffered saline (PBS). Subsequently, the liver cell organoids were supplemented with TrypLE Express (Thermo Fisher Scientific) and incubated at 37° C. for 5 minutes to dissociate them into single cells.
The collected cells were then suspended in proliferation medium supplemented with 20 μM TDI-011536 and seeded into an ultra-low attachment 96-well plate at 2,000 cells/well.
The scale bar is 500 μm. FIG. 24 presents graphs showing the results of measuring changes in cell proliferation over time. In FIG. 24, the vertical axes of the graphs represent cell proliferation (fold increase), and the horizontal axes indicate the number of days of culture. In FIGS. 23 and 24, “OSM” represents Oncostatin M, and “Lats IN” represents the LATS kinase inhibitor (TDI-011536).

Molecule | cell proliferation (ATP luminescence) when TEAD inhibited [1] | cell proliferation (ATP luminescence) when TEAD inhibited [2] | number of viable cells, higher than control group ([3]; 20 μM) [fold] | number of viable cells, higher than control group ([3]; 50 μM) [fold] | number of viable cells (words, FIG. 22) ([3]; adding the LATS kinase inhibitor) | duration for which established organoids could be cultured ([4]; 20 μM TDI-011536 and Oncostatin M) | establishment of human liver cell organoids [4]
C=CC(=O)N1CCC(C)(Nc2cccc(C(F)(F)F)c2)C1 (centres unmarked) [MYF01-37] | inhibited | inhibited | – | – | – | – | –
O=C(N=c1scc(CO)n1Cc1ccccc1)c1c[nH]c2ncccc12 [TDI-011536] | – | – | 16 | 17 | increase in the number of viable cells was observed | at least two months | successfully established
B1 | – | – | – | – | – | – | successfully established
